In a melting point compilation (Tetko et al.; mined from patent text by program, amines drawn as free bases though some values may be those of a salt) one finds melting point data, which are given here for 90 molecules.

One may read the melting point as the temperature, or range, at which the solid turns liquid.

`CCC(OC(=O)C1CC1)c1ccc(Cl)c2nc3n(c12)CCCN3c1ccc(Cl)cc1Cl` (stereo not given): the melting point was in the range of 159 to 161 °C.

On to `O=C1N[C@@H](C=Cc2ccccc2)[C@H]1O`, for which the melting point was 143 to 144 °C.

Molecule `Cc1cc(C)c2cccc(OCc3c(Cl)ccc(S(=O)(=O)N4CCC[C@H]4C(=O)NCc4cccc(C(N)=S)c4)c3Cl)c2n1` showed a melting point of 116 to 118 °C.

`Clc1ccc(CS[C@H]2CO[C@H](c3ccccc3)OC2)cc1` registered a melting point of 95 to 99 °C.

Turning to `CCC(CC)NC1=NS(=O)(=O)c2ccc(Cl)cc2N1`, the melting point lay within 224 to 226 °C.

The molecule `Cc1nc(-c2ccc(Cl)cc2)n[nH]1` registered a melting point of 173 to 175 °C.

Molecule `O=c1[nH]nc(-c2ccccc2[N+](=O)[O-])o1` registered a melting point of 157 to 158 °C.

`COc1cc(Oc2cc(C(F)(F)F)nn2C)nc(Oc2cc(C(F)(F)F)nn2C)c1` came in with a melting point of 107 °C.

`CC(C)C(=O)NCCNCC(O)COc1ccccc1` (single isomer, unassigned; (-)) came in with a melting point of 89 to 91 °C.

Turning to `CN(N)c1ncnc2c1cnn2C`, the melting point was 213 to 215 °C.

As for `NC(=O)CCCSCc1nccc(NC(N)=NCC(F)(F)F)n1`, the melting point lay in the range of 126 to 128 °C.

As to `COC(=O)c1cc(C(=O)N2CCCC(=O)C2)c2cc(Cc3ccc(F)cc3)cnc2c1O`, the melting point fell in the range of 228 to 229 °C.

Molecule `COc1cc2c(cc1OC)CN(CCCCNC(=O)c1cc(Br)ccc1OCCF)CC2` yielded a melting point of 119 to 121 °C.

`Cc1c(C(=O)O)nc2ccc3c(c2c1-c1ccc2c(c1)OCO2)OCO3` registered a melting point of 219 to 222 °C.

The molecule `COCc1cnc2c(NC(=O)c3c(Cl)cccc3Cl)cccc2c1Cn1ccnc1` displayed a melting point of 190 to 191 °C.

As to `CCCc1cccc2c(/C=C(\C)C(=O)O)cc(OC)c(OCOC)c12`, the melting point was 67 to 68 °C.

As to `O=C1CCC(N2Cc3c(OCc4ccc(CN5CCC(O)CC5)cc4)cccc3C2=O)C(=O)N1` (stereo not given), the melting point lay in the range of 204 to 206 °C.

Molecule `COC(=O)CC[C@@H](NC(=O)[C@H](COCc1ccccc1)NC(=O)OC(C)(C)C)C(N)=O` registered a melting point of 103 to 104 °C.

`Cc1ccc(Oc2ccc3c4c(cccc24)C2=NC(=O)C(C#N)=C23)cc1` displayed a melting point of 232 to 233 °C.

As for `O=C1NC(=O)C(c2ccc(O)cc2)N1` (stereo not given), the melting point was 262 °C.

`CCCc1ccc2c(c1)N(c1ncnc3cc(OC)c(OC)cc13)CC2` gave a melting point of 140 to 141 °C.

`COc1ccccc1CN[C@H]1CCCN[C@H]1C(C)(C)C` (relative stereo): the melting point was > 251 °C.

As for `O=Cc1c(Cl)c(Cl)c(Cl)c(Cl)c1Cl`, the melting point fell in the range of 201 to 203 °C.

`Cc1oc(-c2ccccc2)nc1CCOc1ccc(C[C@@H](C(=O)O)n2ccc(-c3ccccc3)c2)cc1` gave a melting point of 146 to 147 °C.

On to `NS(=O)(=O)c1cccc(-c2cccc(-c3nc(-c4ccc(F)cc4)cc(C(F)(F)F)n3)c2)c1`, for which the melting point is 208 °C.

In the case of `Nc1nc(Cc2ccc(Br)cc2)cc(C2CCN(C(=O)c3ccc4c(c3)OCO4)CC2)n1`, the melting point worked out at 162 °C.

`CC(C)NCC(O)COc1cccc(-c2nc(C(F)(F)F)c[nH]2)c1` (stereo not given) returned a melting point of 162 to 164 °C.

For `CS(=O)(=O)c1ccc(C(=O)C(=CO)C(=O)C2CC2)c(Cl)c1-c1nccs1`, the melting point amounted to 176 °C.

`CCCCOc1ccc(C(=O)NCCC(=O)O)cc1`: the melting point was 144 to 146 °C.

Turning to `CCOC(=O)C1=C(C)N=C(N)C(Cc2ccccc2)(C(=O)OCC)C1c1cccc([N+](=O)[O-])c1` (stereo not given), the melting point came to 208 °C.

Consider `CCOC(OCC)C(N)c1nnnn1C` (stereo not given), for which the melting point was 99 to 101 °C.

`CC(=O)OC1CCC2C3CCC4=CC(=O)C=C(C)C4(C)C3CCC12C` (stereo not given) displayed a melting point of 144 °C.

`CC(C)(O)c1ccnc(-c2ccc3nc(-c4n[nH]c5ccccc45)cn3c2)c1` registered a melting point of 255 to 259 °C.

`Cc1ccc(NC(=O)c2cn(-c3ccccc3)c3ccccc3c2=O)nc1` displayed a melting point of 248 to 250 °C.

For the molecule `Cc1cc(C(=O)N(C)C)ccc1-c1ccc(C(=O)O)cc1`, the melting point lay in the range of 190 to 192 °C.

`OCc1ccc2c(n1)COC(c1ccccc1)O2` (stereo not given) gave a melting point of 85 to 89 °C.

`Cc1cc(C)c2nc(NCC3COC(C)(C)O3)n(Cc3nc(C)ccc3O)c2c1` (stereo not given): the melting point stood at 225 °C.

With `CCOC(=O)Cc1ccc(-c2nc(COc3ccc(CCl)cc3OC)c(C)o2)cc1`, the melting point is 121 to 122 °C.

`CCCCCN1CC[C@@H](c2ccc(Br)cc2)[C@H](CO)C1` (racemic) displayed a melting point of 128 to 130 °C.

`CN(C)CCc1cccc(OCCNc2nc(N)nn2C)c1` gave a melting point of 72 °C.

As to `CCCCN(CCCC)c1ccc2cc(Cl)cnc2c1C#N`, the melting point is 112 °C.

`CC(=NC(C#N)=C(N)C#N)c1ccccc1O`: the melting point was in the range of 181 to 183 °C.

Turning to `O=C(CC(O)(c1cc(Cl)cc(Cl)c1)C(F)(F)F)c1ccc(-n2cncn2)nc1` (stereo not given), the melting point is 135 to 136 °C.

The molecule `ClCc1ccc(OCc2ccc3ccccc3n2)nc1` returned a melting point of 118 to 119 °C.

On to `CC1CN(c2ccc([N+](=O)[O-])cc2)CC(C)N1` (stereo not given), for which the melting point was 124 to 125 °C.

Consider `COc1ccc(C(=NO)c2sccc2Br)cc1`, for which the melting point was in the range of 110 to 115 °C.

`NC(=O)N(O)Cc1cccc(OCc2coc(-c3ccc(F)cc3)n2)c1` showed a melting point of 89 to 91 °C.

`CC(=O)NCc1cc2n(n1)-c1ccc([N+](=O)[O-])cc1C(c1ccccc1)=NC2` returned a melting point of 208 to 211 °C.

As to `CCCCC(=O)Nc1ccc(Cl)c(-n2nc(CCCC)n(Cc3ccc(-c4ccccc4S(=O)(=O)NC(=O)OC(C)(C)C)cc3)c2=O)c1`, the melting point was 177 to 179 °C.

As for `Cc1ccc(Nc2cccc(O)c2)cc1`, the melting point was in the range of 86 to 88 °C.

For `CCOC(=O)C1=C(C)NC(CO)=C(C(=O)OCC)C1c1ccccc1C(F)(F)F` (stereo not given), the melting point was 147 to 148 °C.

Molecule `CN1c2ccccc2NC(=S)c2cscc21` showed a melting point of 203 to 204 °C.

In the case of `COC(=O)CCc1ccc(OCCC2Oc3ccccc3N(Cc3cccc(Cl)c3)C2=O)cc1` (stereo not given), the melting point fell in the range of 88 to 89 °C.

`CN(C)C(=S)C1(c2ccccn2)CCCS1` (stereo not given) had a melting point of 100 °C.

In turn, `COc1ccc(C(=O)NNC(=O)c2ccc([N+](=O)[O-])cc2)cc1` displayed a melting point of 256 to 258 °C.

`N=C(N)NCCC[C@H](NC(=O)CNC(=O)C(CS)Cc1ccccc1)C(=O)O` (stereo not given in full) came in with a melting point of 120 to 137 °C.

Molecule `CCCc1c(OCCCCCCCC(=O)NCCCCc2cccnc2)ccc(C(C)=O)c1O` displayed a melting point of 48 to 51 °C.

With `Nc1ccc(Oc2cccc(C(F)(F)F)c2Cl)cc1`, the melting point fell in the range of 65 to 66.5 °C.

The molecule `COc1cc2ncnc(Nc3cccc(Br)c3)c2cc1OCCN1CC(=O)O[C@@H](C)C1` showed a melting point of 190 °C.

In turn, `COC(CNC(=O)N(N=Cc1ccccc1)c1cc(Cl)c(C(C#N)c2ccc(Cl)cc2)c(Cl)c1)OC` (stereo not given) showed a melting point of 190 to 191 °C.

As to `COc1ccc(C=O)cc1OC1CC=CC1`, the melting point was in the range of 60 to 62 °C.

Consider `C=C(CN(C)C)c1ccc(NC(=O)NC)cc1`, for which the melting point fell in the range of 123 to 124 °C.

In turn, `CCc1nc(=O)n(C)c2sccc12` showed a melting point of 156 °C.

As to `Cc1cc2ncc(-c3ccsc3)nc2cc1C`, the melting point was in the range of 142 to 144 °C.

Molecule `N#Cc1sc2ccccc2c1Cl` gave a melting point of 124 to 125 °C.

`COC(=O)c1ccc2c(c1)S(=O)(=O)N=CN2C1CC1` yielded a melting point of 192 to 195 °C.

Turning to `CC1=NN(CC(C)C)S(=O)(=O)c2sc(S(N)(=O)=O)cc21`, the melting point is 140 to 142 °C.

`C=CCNC(=O)C(C#N)C(=O)C1CC1` (stereo not given) returned a melting point of 72 to 73.5 °C.

As to `Cc1cc(C(O)(C=Cc2ccc(Cl)cc2)C(F)(F)F)ccc1NC(=O)c1cccc(I)c1C(=O)NC(C)C` (stereo not given), the melting point was 65 to 75 °C.

Regarding `COc1ccc2c3c1CCCN3C(C)(C)C=C2C`, the melting point fell in the range of 87 to 88 °C.

In the case of `CC(C)(C)c1ccc2oc(C(=O)CBr)cc2c1`, the melting point lay within 100 to 102 °C.

The molecule `N#Cc1ccc(N(Cc2ccc(O)c(Br)c2)n2cnnc2)cc1-c1ccoc1` yielded a melting point of 200 to 201 °C.

Regarding `O=C(Nc1ccc(C(F)(F)F)cc1)Nc1ccc2c(c1)COC2=O`, the melting point is 297 to 307 °C.

`Cc1ccc2c(c1)CCN1C2CC(=O)C2CCCCC21` (stereo not given) had a melting point of 101 to 121 °C.

As for `OC[C@H]1OC[C@@H](n2cnc3cc(Cl)c(Cl)cc32)[C@H](O)[C@@H]1O`, the melting point was 160 to 162 °C.

As to `C[Si](C)(C)C#Cc1ccc2c(c1)C(=O)N(c1ccc3c(c1)C=C3)C2=O`, the melting point lay in the range of 192 to 193 °C.

Consider `COC(=O)/C=C/c1ccc(N)nc1`, for which the melting point lay in the range of 173 to 175 °C.

Take `O=C(c1ccc(F)cc1)c1ccc2n1CCCC2C(=O)O` (stereo not given): the melting point was 161 to 162 °C.

Take `CC(C)(C)C1(O)CCN(CC2c3ccccc3CCc3ccccc32)CC1`: the melting point is 96 to 98.5 °C.

As for `CCOC(=O)CN(C(=O)C(=O)N(CC(=O)OCC)S(=O)(=O)C(F)(F)F)S(=O)(=O)C(F)(F)F`, the melting point was in the range of 88 to 90 °C.

In turn, `COc1cc(CO)cc(OC)c1OCc1nc(-c2ccccc2)oc1C` came in with a melting point of 113 to 114 °C.

For `CCOC(=O)c1cn(CC)c2c(=O)c3cc(Cl)ccc3oc2c1=O`, the melting point lay within 257 to 259 °C.

`O=c1[nH]c(COc2cccc(Cl)c2Cl)nc2nccnc12` had a melting point of 219 to 220 °C.

For `CC(=O)N1CCN(c2ccc(-c3cnc4[nH]cc(C(=O)C5(C)CCCCC5)c4n3)cc2)CC1`, the melting point was in the range of 278 to 285 °C.

Molecule `CC(C)(C)C(=O)COc1ccc(Cl)cn1` displayed a melting point of 68 to 69.5 °C.

`COc1cc(-c2cc(=Nc3c(C)cc(C)cc3C)n(C)c(=O)n2C)ccc1O`: the melting point fell in the range of 90 to 100 °C.

Consider `COC1(OCCc2nc(C(C)C)c(Sc3cc(Cl)cc(Cl)c3)n2C)C2CC3CC(C2)CC1C3` (stereo not given), for which the melting point fell in the range of 74.5 to 76 °C.

`Cc1cc(C(=O)NCCCCc2ccc(-c3ccc(=O)[nH]n3)cc2)on1`: the melting point lay within 236 to 238 °C.

The molecule `COc1ccc([C@@H]2CCc3cc(OC)ccc3[C@@H]2CCCO)cc1` (relative stereo) had a melting point of 99 °C.

Regarding `CCn1c(C)c(C2(N(c3ccccc3)c3ccccc3)OC(=O)c3cccnc32)c2ccccc21` (stereo not given), the melting point lay within 132 to 136 °C.
